Active and inactive are the calls of the source. The rule behind the calls is not given here.
Legend:
[1] = Stability in mouse kidney assessed as compound remaining at 50 mg/kg, po measured for 0.083 to 8 hrs by HPLC analysis; type: ADME, organism-based; settings: in vivo, time 0.083-8 hrs
[2] = Drug metabolism in mouse lymph node assessed as cinnamic acid metabolite formation at 50 mg/kg, po measured for 0.083 to 8 hrs by HPLC analysis; type: ADME, organism-based; settings: in vivo, time 0.083-8 hrs
[3] = Drug metabolism in Sprague-Dawley rat plasma assessed as cinnamic acid metabolite formation at 5 mg/kg, iv measured for 24 hrs by HPLC analysis; type: ADME, organism-based; settings: in vivo
[4] = Drug metabolism in rat plasma assessed as double hydrolyzation/double hydroxylation-mediated metabolite formation at 50 mg/kg, po measured for 24 hrs by HRMS analysis; type: ADME, organism-based; settings: in vivo
[5] = Stability in mouse lymph node assessed as compound remaining at 50 mg/kg, po measured for 0.083 to 8 hrs by HPLC analysis; type: ADME, organism-based; settings: in vivo, time 0.083-8 hrs
[6] = Stability in rat plasma at 37 degreeC; type: ADME, cell-free
[7] = Drug metabolism in rat plasma assessed as cinnamic acid metabolite formation at 50 mg/kg, po measured for 24 hrs by HRMS analysis; type: ADME, organism-based; settings: in vivo
[8] = Drug metabolism in rat plasma assessed as double hydrolyzation/demethylation-mediated metabolite formation at 50 mg/kg, po measured for 24 hrs by HRMS analysis; type: ADME, organism-based; settings: in vivo
[9] = Stability in mouse blood assessed as compound remaining at 50 mg/kg, po measured for 0.083 to 8 hrs by HPLC analysis; type: ADME, organism-based; settings: in vivo, time 0.083-8 hrs
CTLL-2 [10] = experiment: Induction of ferroptosis in mouse CTLL-2 cells assessed as increase in ROS level incubated for 16 hrs by DCFH-DA staining based flow cytometry; type: functional, cell-based; settings: dose 7.5-30 µM
Mus musculus [11] = experiment: Anti-aplastic anemia activity in C57BL/6J mouse model of immune-mediated bone marrow failure assessed as restoration of naive CD8+ T cells at 5 to 15 mg/kg, IG qd treated for 12 days by flow cytometry; type: functional, organism-based; settings: dose 5-15 mg/kg, time 12.0 day
CD8-positive T cell [12] = experiment: Inhibition of CD3/CD28-activated CD8-positive T cell activation in BALB/c mouse lymph nodes assessed as decrease in cluster formation of cells at 1 to 10 uM incubated for 72 hrs by microscopy; type: functional, cell-based; settings: Lymph node, dose 1-10 µM
HL-60 = experiment: Cytotoxicity against human HL-60 cells assessed as inhibition of cell viability incubated for 72 hrs by CCK8 assay; type: functional, cell-based; settings: HL-60, 72 h
CTLL-2 [13] = experiment: Induction of ferroptosis in IL-2-stimulated mouse CTLL-2 cells assessed as increase in mitochondrial superoxide level at 30 uM incubated for 6 hrs followed by Fer-1 addition measured after 10 hrs by MitoSOX Red staining based fluorescent microscopy; type: functional, cell-based; settings: time 16.0 hrs
Mus musculus [14] = experiment: Anti-aplastic anemia activity in C57BL/6J mouse model of immune-mediated bone marrow failure assessed as increase in animal survival at 5 to 15 mg/kg, IG qd treated for 21 days; type: functional, organism-based; settings: dose 5-15 mg/kg, time 21.0 day
Mus musculus [15] = experiment: Anti-aplastic anemia activity in C57BL/6J mouse model of immune-mediated bone marrow failure assessed as increase in body weight at 5 to 15 mg/kg, IG qd treated for 21 days; type: functional, organism-based; settings: dose 5-15 mg/kg, time 21.0 day
Mus musculus [16] = experiment: Anti-aplastic anemia activity in BALB/c mouse model of immune-mediated bone marrow failure assessed as increase in peripheral red blood cells at 10 mg/kg, po treated for 14 days; type: functional, organism-based; settings: time 14.0 day
CTLL-2 [17] = experiment: Induction of ferroptosis in mouse CTLL-2 cells assessed as increase in extracellular Ca2+ influx at 10 uM incubated for 24 hrs in presence of EDTA by Fluo-4 AM dye based analysis; type: functional, cell-based
CD8-positive T cell [18] = experiment: Inhibition of CD3/CD28-activated CD8-positive T cell activation in BALB/c mouse lymph nodes assessed as decrease in CD69 expression level at 1 to 10 uM incubated for 72 hrs by flow cytometry; type: functional, tissue-based; settings: Lymph node, dose 1-10 µM
CTLL-2 [19] = experiment: Induction of ferroptosis in mouse CTLL-2 cells assessed as increase in pMEK level at 7.5 to 30 uM incubated for 16 hrs by Western blot analysis; type: functional, cell-based; settings: dose 7.5-30 µM

SMILES | Stability [1] | Drug metabolism [2] | Drug metabolism [3] | Drug metabolism [4] | Stability [5] | Stability [6] | Drug metabolism [7] | Drug metabolism [8] | Stability [9] | Activity (CTLL-2 [10]) | Activity (Mus musculus [11]) | inhibition (CD8-positive T cell [12]) | IC50 (HL-60) | Activity (CTLL-2 [13]) | Activity (Mus musculus [14]) | Activity (Mus musculus [15]) | Activity (Mus musculus [16]) | Activity (CTLL-2 [17]) | inhibition (CD8-positive T cell [18]) | Activity (CTLL-2 [19])
COC1=C[C@@H]2[C@@H]3Cc4c(COC(=O)/C=C/c5ccccc5)cc(OC)c(OC(=O)/C=C/c5ccccc5)c4[C@]2(CCN3C)CC1=O | Unstable | metabolite_detected | metabolite_detected | metabolite_detected | Unstable | Unstable | metabolite_notdetected | metabolite_detected | Unstable | – | – | – | – | – | – | – | – | – | – | –
COC1=C[C@@H]2[C@@H]3Cc4c(CO)cc(OC)c(OC(=O)/C=C/c5ccccc5)c4[C@]2(CCN3C)CC1=O | – | – | – | – | – | – | – | – | – | Dose-dependent-effect | Active; Partial Restoration Of Naive Cd8+ T Cells Was Observed | Active | 133 µM | inactive | Active; Improvement Observed During Early Stages Of Bone Marrow Failure | Active | Active | Active | Active | Active

Source: ChEMBL document CHEMBL6177973, “A Novel Compound 3a-M1, from Metabolites of Sinomenine Derivative 3a, Exerts Potent Anti-Aplastic Anemia Activity via IP3R/ORAI-Mediated CTL Ferroptosis” (J Med Chem, 2025)
